The record followed here is patent publication US10676747B2, “Methods for improving cognitive function via modulation of quinone reductase 2” (Carmel-Haifa University Economic Corp. Ltd., priority 2014, dated 2020).

Series [1] relates to rats. Briefly: Novel taste (saccharin) choice test after injection of QR2 shRNA virus into the IC. In kind it is in vivo, rat. To be noted: lentivirus injected into IC; choice test three days after saccharin; mean+/-SEM, n=12. As to the method: Micro-infusion—Rats were anesthetized with Equithesin (0.45 ml/100 g) (2.12% w/v MgSO4, 10% v/v ethanol, 39.1% v/v 1,2,-propranolol, 0.98% w/v sodium pentobarbital, and 4.2% w/v chloral hydrate), restrained in a stereotactic apparatus (Stoelting, USA) and injected bilaterally with a 10 mm 28 gauge injection cannula aimed at the rat gustatory cortex (anteroposterior, +1.2 mm relative to bregma; lateral, ±5.5 mm; ventral, −5.5 mm; (Paxinos and Watson, 1986). The injection cannula was connected via PE20 tubing to a Hamilton microsyringe driven by a micro-infusion pump (CMA/100; Carnegie Medicin). […] The injection cannula was left in position before withdrawal for an additional 1 min to minimize dragging of the injected liquid along the injection tract. To avoid lateral bias, animals were injected interchangeably between both sides. Following the microsurgery, animals were injected i.m. with antibiotic and were allowed to recuperate for one week. […]
Preference index—the preference index was calculated by the following equation [(total novel taste liquid ingested/(novel taste liquid ingested+water ingested))*100]. […]

For series [2], the system named is rats. Briefly: Memory extinction following a CTA paradigm in QR2 shRNA injected animals. The format is in vivo, rat. Conditions: repeated measure ANOVA; FIG. 11. As to the method:
Aversion index—the aversion index is calculated by the following equation [(total water ingested/(novel taste liquid ingested+water ingested))*100].
Conditioned Taste Aversion (CTA)—Two groups of rats were deprived from water for a period of 24 hours. This was followed by 3 days of restriction were the rats received two pipettes each filled with 10 ml of water for 20 minutes each day. On the fourth day both groups received two pipettes each filled with 10 ml of an unfamiliar tasting liquid, either saccharine (0.1% w/v) or NaCl (0.3% w/v), for 20 minutes. Forty minutes following the exposure to the novel liquid the rats in the experimental group received an injection of LiCl (prepared in double distilled water (DDW)) (2% bodyweight, intraperitoneally (i.p.)) and those in the control received an injection of physiological saline (2% bodyweight, i.p.).

Series [3] relates to mice. Briefly: Delay fear conditioning test after QR2 shRNA lentivirus injection into the CA1 region of hippocampus. In kind it is in vivo, mouse. As to the method: M&M—A delay fear conditioning test was performed on two groups of mice (10 mice per group) injected with Lentivirus encoding the QR2 shRNA or a scrambled sequence one week before the experiment. The Lentivirus was injected in to the CA1 region of hippocampus. The conditioning apparatus used was four New Biotechnology Ltd. (NBT) chambers, (Panlab Harvard Apparatus, Barcelona, Spain) consisting of a Plexiglas walls (25×25×25 cm) with a 16 stainless steel rods grid floor, a dim light and speakers. The apparatus was located inside a sound proof larger, insulated plastic cabinet that excluded outside light and noise. On day 1 (training), the mice were transported to the nearby testing room and set next to the conditioning chambers for a 5 min resting period with lights off. Each chamber was wiped with 30% ethanol solution before training and each mouse was placed in the chamber individually during training. For delay fear conditioning, mice were pre-exposed to an experimental chamber for 5 min, and received 5 trials in which 4000 Hz, tone, applied for 10 seconds at 76 dB (conditioned stimuli; CS) co-terminated by a 0.36 mA foot shock applied for 2 second (unconditioned stimuli; US), separated by 3.5 min inter-trial interval (ITI). After the last training trial, the mice were left in the conditioning chamber for another 120 s and were then placed back in their home cages.
On day 2 and day 8 (1 week later) (context fear test), the mice were returned to the same experimental chamber with the same contextual configuration for 10 min. Freezing behavior was recorded. On the third day and day 9 (1 week later) (tone fear test), the mice were set next to the conditioning chambers for a 5 min resting period with lights on, then mice were placed into the same experimental chamber, with novel contextual configuration (no light, and a smooth black Plexiglas floor), for 5 min during which freezing was record under infra-red light source. […] The animals' behavior was recorded, and the data analyzed by Freeze Frame 3.0 software (Coulbourn Instruments, PA, USA). […]

In series [4] the test system is mice. The experiment in a line: Morris Water Maze after QR2 shRNA injection into hippocampus (CA1 region). In kind it is in vivo, mouse. As to the method: M&M—Spatial reference memory in the Morris Water Maze (MWM) was determined as previously described (Vorhees, Williams 2006). The pool was 1.2 m in diameter and the water was rendered opaque by the addition of white tempera. Water temperature was kept at 22° C. The platform was 8 cm in diameter. All behavioral tests and trials were performed at the same time of day (±1 hr) during the animal's light phase. The mice were acclimatized in testing room for 15 min. Mice were trained in four trials per day (trial length 60 s with 30 s ITI), over 4 consecutive days. If an animal fails to locate the platform within training time, it is usually picked up and placed on the platform for 15 s. For probe trials, the platform was removed from the maze and the animals were allowed to search for 60 s. Learning was evaluated by monitoring escape latencies to a hidden (submerged) platform and time spent in each quadrant of the maze (quadrant occupancy) with an automated video tracking system, and the data analyzed by EthoVision XT9 (Noldus Information Technology, USA). Swimming speed was similar in QR2 shRNA and scrambled injected animals (data not shown).

The subject of series [5] is QR2 mRNA. Briefly: QR2 mRNA expression in the IC after stereotactic injection of QR2 shRNA virus (RT-PCR). Conditions: compared to scrambled virus group, n=12, p<0.005; FIG. 12. The format is in vivo, rat.
Experimental: Tissue extraction—Following the learning protocol the insular cortex was removed by hand. The insular cortex was identified through cortical landmarks, the rhinal fissure and the medial cerebral artery. The insular cortex was immediately placed in liquid nitrogen and then stored at −80° C.
(§1) mRNA quantification—We used the RNeasy lipid tissue kit (QIAGEN) according to the manufacturer's instructions in order to extract the RNA. We then evaluated RNA concentration and purity using a nanodrop spectrophotometer.
(§2) The cDNA synthesis was accomplished using the High Capacity Reverse Transcription Kit (ABI) according to the manufacturer's instructions. The reaction was carried out in a total volume of 20 μl on 1000 ng of RNA.
(§3) The qPCR reaction was performed in a total volume of 10 μl on 10 ng of cDNA. We used the following TaqMan assays (Applied Biosystems): QR2 (Rn01434728_g1), NQO1 (RN00566528_m1), glyceraldehyde-3-phosphate dehydrogenase, GAPDH (Rn01775763_g1). The reactions were carried out per the manufacturer's instructions.
(§4) Real Time-PCR analysis was performed using the PCR System STEP-ONE plus (Applied Biosystems). Relative mRNA levels were calculated using the ΔΔCt method using GAPDH as a normalizing gene: ΔΔCt=[(Ct(gene of interest)−Ct(GAPDH)) of the untreated group]−[(Ct(gene of interest)−Ct(GAPDH)) of the treated group]. The fold increase is then calculated as such: fold increase=2−ΔΔCt. […]
Series [6] deals with QR2 mRNA. The experiment in a line: QR2 mRNA expression in primary cortical cells treated with QR2 shRNA lentiviral clones. In kind it is cell-based. Conditions: rat primary cortical cells, week long incubation, compared to scrambled virus; FIG. 8.
Experimental: as §1, §2, §3, §4
For this purpose, we evaluated three different clones (Sigma-Aldrich, Israel). […] We then evaluated QR2 mRNA expression.

As to “v394: shRNA construct directed against mouse QR2 (Sigma-Aldrich clone), subcloned into lentiviral plasmid pFUGW; chosen clone used for the injected virus (CCGGCAGUCACUGUGUCUGAUUUAUCUCGAGAUAAAUCAGACACAGUGACUGUUUUUG)”, the “Preference index (PI)” value with rats [1] is 76.3+/−2.14. The “Memory extinction (aversion index over time)” value in the series with rats [2] is listed as “significant extinction on Day 3”. Also, the “Long term memory (response to conditioned context and tone)” value in the series on mice [3] (1 week later, vs scrambled sequence, context p=0.03, tone p=0.031) is “enhanced long term memory”. Besides, in the series on mice [3] (day 2, vs scrambled sequence, n=10, p=0.031), the “Freezing response, context test” value is recorded as “froze significantly frequently”. For the same substance, the “Freezing response, tone test” value in the series with mice [3] (day 3, vs scrambled sequence, n=10, p=0.003) was “froze significantly frequently”. Also, the “Quadrant occupancy (time in target quadrant), probe test” value with mice [4] (after completion of training, vs scrambled injected mice, p=0.031) is “preferential quadrant occupancy”. Further, the “Escape latency to hidden platform” value in the series on mice [4] (day 4 of training, vs scrambled injected mice, p=0.036) was “shorter latency”. Besides, the Swimming speed entry with mice [4] (vs scrambled injected animals, data not shown) was “similar”. Moreover, the “Crossings of the platform location, probe test” value in the series on mice [4] (vs scrambled injected mice, p=0.029) is recorded as “more times”. The “QR2 mRNA expression in the IC” value in the series on QR2 mRNA [5] is recorded as “significantly lower QR2 mRNA expression”. The “QR2 mRNA expression” value in the series on QR2 mRNA [6] is reported as “slightly more effective”.
